Experimental data taken from patent US20230212653A1, “METHODS AND MATERIALS FOR ASSESSING HOMOLOGOUS RECOMBINATION DEFICIENCY IN BREAST CANCER SUBTYPES” (Myriad Genetics, Inc., priority 2021, published 2023).

Test system: triple negative breast cancer (TNBC)
Assay: Pathologic response of a neoadjuvant TNBC cohort treated with cisplatin (Example 6)
Assay type: in vivo, human
Details: for PR = yes, % response / pCR = yes, % response: secondary analysis; for pCR = yes, % response: n=51
Description: Analysis of a neoadjuvant TNBC cohort treated with cisplatin was examined relative to the relationship between all three HRD scores and response. All p values were from logistic regression models with response to cisplatin as the dependent variable.
HR Deficiency status was determined for 62 of the 70 samples (70 individual patients) received from a cisplatin cohort (8 had insufficient tumors for analysis). Of these, 31 (50%) were HR deficient, 22 (35%) were non-HR deficient, and 9 (15%) were undetermined. FIG. 15 provides a histogram showing the distribution of HRD scores in the cohort. Scores ≥42 were considered to have high HRD (see also, Example 5). […] Pathologic complete response (pCR), which is associated with long-term survival, was defined as a residual cancer burden (RBC) of 0 and observed in 11/59 (19%) samples. […] These overall response rates correlated with monotherapy expectations.
Statistical analyses followed a predefined Statistical Analysis Plan (SAP), which included primary, secondary, and BRCA wild-type subset analyses.

N.N.[Cl][Pt][Cl] [cisplatin]
PR = yes, % response (BRCA Mutant): 5 (55.6%)
pCR = yes, % response (BRCA Mutant): 3 (33.3%)
PR = yes, % response (BRCA Non-mutant): 13 (31.0%)
pCR = yes, % response (BRCA Non-mutant): 5 (11.9%)
Pathologic complete response (pCR) rate (whole cisplatin cohort, 11/59 samples, pCR = residual cancer burden 0): 19%
Pathologic response (PR) rate (whole cisplatin cohort, 22/59 samples, PR = residual cancer burden 0 or 1): 37%
